Results taken from patent US6538029B1, “Methods for treatment of renal cell carcinoma” (Cell Pathways, priority 2002, dated 2003).
Where two headings read alike, the source gives them in different places.

Experiments:
PDE10 from 786-O = PDE10 from 786-O (Homo sapiens, UniProt Q9Y233); experiment: Inhibition and kinetics of PDE10 from 786-O (pooled fractions of the center peak); assay type: biochemical; settings: for IC50: pooled center-peak fractions
Description: (§1) Fractions were pooled from a 786-O profile from the center peak.
as §1
(§2) Protein assays were determined using the Bio-Rad DC Protein Assay. A nonlinear regression to the Michalis-Menten equation in Prism was used to determine the Km and Vmax.
as §2

[1] = target: cloned and expressed human PDE10 (Homo sapiens, UniProt Q9Y233); settings: cited from earlier work; for IC50 / Published IC50s on cloned PDE10, cAMP / Published IC50s on cloned PDE10, cGMP: literature values
786-O cells [2] = assay type: cell-based; settings: Homo sapiens, 786-0, 144 h; 6 days with drug, sulforhodamine B
Description: Testing of Neoplastic Cell Growth Inhibition of PDE10-Inhibiting Compounds on Renal Cell Carcinoma (786-O) Cells. […] After 24 hours, the media was removed, and the same media containing the drug was added to the cells (0.1% DMSO final concentration).

786-O cells [3] = experiment: Apoptosis on 786-O cells (Roche Cell Death Assay); assay type: cell-based, human; settings: 48 hours with drug
Description: Testing of PDE10-Inhibiting Compounds for Apoptosis on Renal Carcinoma (786-O) Cells. […] After 24 hours, the media was removed and the same media containing the drug was added to the cells (0.1% DMSO final concentration). After 48 hours, apoptosis was detected using the Roche Cell Death Assay.

[4] = read-out: μM IC50s on PDE10 from 786-O, cAMP, cAMP substrate at 0.09 μM, table: N = 2 average, EHNA, Milrinone, Rolipram N = 1
[5] = read-out: μM IC50s on PDE10 from 786-O, cGMP, cGMP substrate at 5.5 μM, table: N = 2 average, EHNA, Milrinone, Rolipram N = 1
[6] = read-out: Published IC50s on cloned PDE10, cAMP, cAMP as substrate
[7] = read-out: Published IC50s on cloned PDE10, cGMP, cGMP as substrate
[8] = μM IC50s on PDE10 from 786-O, cAMP, cAMP substrate at 0.09 μM, table: N = 2 average, EHNA, Milrinone, Rolipram N = 1
[9] = μM IC50s on PDE10 from 786-O, cGMP, cGMP substrate at 5.5 μM, table: N = 2 average, EHNA, Milrinone, Rolipram N = 1

PDE10 from 786-O, sequence (Q9Y233 290-1055 limits assumed): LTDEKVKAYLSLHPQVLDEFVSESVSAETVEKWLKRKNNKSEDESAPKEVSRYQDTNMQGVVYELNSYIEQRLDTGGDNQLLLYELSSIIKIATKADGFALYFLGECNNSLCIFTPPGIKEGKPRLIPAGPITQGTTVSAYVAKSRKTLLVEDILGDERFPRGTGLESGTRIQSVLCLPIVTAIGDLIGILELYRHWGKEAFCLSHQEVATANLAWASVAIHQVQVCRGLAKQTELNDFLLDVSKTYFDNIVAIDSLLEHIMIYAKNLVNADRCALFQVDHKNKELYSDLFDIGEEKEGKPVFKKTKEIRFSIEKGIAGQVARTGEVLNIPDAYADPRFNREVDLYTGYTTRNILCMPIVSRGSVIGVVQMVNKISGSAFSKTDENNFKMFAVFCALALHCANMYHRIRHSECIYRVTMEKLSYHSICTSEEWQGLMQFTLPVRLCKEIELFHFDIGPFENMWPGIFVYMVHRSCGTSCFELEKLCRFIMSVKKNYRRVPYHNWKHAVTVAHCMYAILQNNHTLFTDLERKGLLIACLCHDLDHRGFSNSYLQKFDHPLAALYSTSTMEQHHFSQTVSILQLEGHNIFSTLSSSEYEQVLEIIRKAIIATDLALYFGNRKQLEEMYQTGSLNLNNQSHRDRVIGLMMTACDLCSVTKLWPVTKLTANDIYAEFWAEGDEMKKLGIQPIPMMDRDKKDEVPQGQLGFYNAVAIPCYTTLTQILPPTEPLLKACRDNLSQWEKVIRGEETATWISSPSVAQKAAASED
cloned and expressed human PDE10, sequence (Q9Y233 1-779 isoform Q9Y233-1): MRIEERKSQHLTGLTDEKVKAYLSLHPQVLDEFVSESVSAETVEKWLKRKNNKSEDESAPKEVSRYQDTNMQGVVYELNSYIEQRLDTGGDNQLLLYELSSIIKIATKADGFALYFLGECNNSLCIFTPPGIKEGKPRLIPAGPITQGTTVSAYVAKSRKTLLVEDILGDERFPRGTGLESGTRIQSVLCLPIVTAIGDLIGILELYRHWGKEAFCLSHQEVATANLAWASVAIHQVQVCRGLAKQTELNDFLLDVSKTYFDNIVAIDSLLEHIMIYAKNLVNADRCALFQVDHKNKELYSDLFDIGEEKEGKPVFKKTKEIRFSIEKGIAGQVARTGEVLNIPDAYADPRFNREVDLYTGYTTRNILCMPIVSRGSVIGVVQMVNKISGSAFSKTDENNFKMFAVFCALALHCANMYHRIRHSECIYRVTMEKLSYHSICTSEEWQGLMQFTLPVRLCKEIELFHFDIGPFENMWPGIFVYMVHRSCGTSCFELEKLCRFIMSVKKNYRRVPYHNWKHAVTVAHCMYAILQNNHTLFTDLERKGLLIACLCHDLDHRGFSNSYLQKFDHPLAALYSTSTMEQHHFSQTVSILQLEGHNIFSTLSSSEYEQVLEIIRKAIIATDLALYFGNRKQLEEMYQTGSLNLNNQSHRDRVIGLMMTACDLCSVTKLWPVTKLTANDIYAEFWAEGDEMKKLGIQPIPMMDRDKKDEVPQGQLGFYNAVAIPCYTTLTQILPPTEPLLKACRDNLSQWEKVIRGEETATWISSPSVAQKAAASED

SMILES	IC50 (PDE10 from 786-O; [4]) [µM]	IC50 (PDE10 from 786-O; [5]) [µM]	IC50 (PDE10 from 786-O; [8]) [µM]	IC50 (PDE10 from 786-O; [9]) [µM]	IC50 [1, 6] [µM]	IC50 [1, 7] [µM]	Published IC50s on cloned PDE10, cGMP ([1]; cGMP as substrate) [µM]	also measured
CCCCCC[C@@H]([C@@H](C)O)n1cnc2c(N)ncnc21 (racemic) [EHNA]	60	46			> 100	> 100		
COc1cc(/C=C2/C(C)=C(CC(=O)NCc3ccccc3)c3cc(F)ccc32)cc(OC)c1OC [Compound A, 1 H-indene-3-acetamide, 5-fluoro-2-methyl-N-(phenylmethyl)-1-[(3,4,5-trimethoxyphenyl)methylene]-, (1Z)]								IC50 (PDE10 from 786-O; IC50 on PDE10 from 786-O (inhibition of cGMP PDE activity), FIG. 10): 0.031 µM; IC50 (786-O cells [2]): 0.03 µM; IC50 (786-O cells [3]; Homo sapiens, 786-0, read-out: IC50 for induction of apoptosis in the 786-O cell line): 0.071 µM
O=C(O)C1CCN(c2nc(NCc3ccc4c(c3)OCO4)c3cc(Cl)ccc3n2)CC1 [Example E4021]	2.8	3.2			7.2	4.2		
CC1=C(CC(=O)O)c2cc(F)ccc2/C1=C\c1ccc(S(C)(=O)=O)cc1 [Exisulind, exisulind, reference compound]								IC50 (PDE10 from 786-O; IC50 on PDE10 from 786-O (inhibition of cGMP PDE activity), FIG. 8, 9): 134 µM; IC50 (786-O cells [2]): 273 µM; Induction of apoptosis in the 786-O cells (786-O cells [3]): did not show significant induction of apoptosis
CC(C)Cn1c(=O)n(C)c(=O)c2[nH]cnc21 [IBMX]	4.5	6.3			17	11		
CCOC(=O)C1=C[C@]2(CC)CCCN3CCc4c(n1c1ccccc41)[C@@H]32 [Vinpocetine]			38	45			73	Published IC50s on cloned PDE10, cAMP ([1]; cAMP as substrate): 77 µM
Nc1nc2c(ncn2[C@@H]2O[C@@H]3COP(=O)(O)O[C@H]3[C@H]2O)c(=O)[nH]1 [cGMP, cyclic 3′,5′-guanosine monophosphate]	5.2				14			Km (PDE10 from 786-O; Michaelis-Menten plot, 30 min at 30° C., FIG. 4, 6, read-out: Km for the 786-O PDE): 6.5 µM; Vmax (PDE10 from 786-O; pooled center-peak fraction): 461 pmol/min/mg; Km (PDE10 from 786-O; pooled fractions 57-75 of PDE10, read-out: Km, average of three values (stdev in parenthesis)): 5.5 µM; Vmax ratio of cGMP/cAMP (PDE10 from 786-O; times higher than Vmax for cAMP): 2.4; Vmax ratio of cGMP/cAMP, cloned and expressed PDE10 ([1]; Fujishige et al. 1999): 2.2; Km ([1]; Fujishige et al. 1999, read-out: Km published for cloned and expressed PDE10): 7.2 µM

Now from value to compound, other results behind:

IC50 (PDE10 from 786-O; [4]) [µM]	IC50 (PDE10 from 786-O; [5]) [µM]	IC50 (PDE10 from 786-O; [8]) [µM]	IC50 (PDE10 from 786-O; [9]) [µM]	SMILES	IC50 [1, 6] [µM]	IC50 [1, 7] [µM]	Published IC50s on cloned PDE10, cGMP ([1]; cGMP as substrate) [µM]	also measured
		84	103	Cc1[nH]c(=O)c(C#N)cc1-c1ccncc1 [Milrinone]			>100	Published IC50s on cloned PDE10, cAMP ([1]; cAMP as substrate): >100 µM
		13	17	CCCOc1ccccc1-c1nc2nn[nH]c2c(=O)[nH]1 [Zaprinast]			14	
